Data: the NIST ThermoML archive (doi:10.1021/acs.jced.6b00350)
“And” between values parts separate entries of the source, which are not always exact repeats. Equal entries are not always repeated.

Settings: Liquid, Hot wire method

FC(F)CC(F)(F)F [1,1,1,3,3-pentafluoropropane]
Settings	thermal conductivity
173.21 K, 150 kPa	0.1235 W/m/K and 0.1232 W/m/K
173.3 K, 132 kPa	0.1239 W/m/K
173.3 K, 133 kPa	0.1234 W/m/K
173.3 K, 148 kPa	0.1237 W/m/K and 0.1231 W/m/K
173.41 K, 150 kPa	0.1234 W/m/K
173.51 K, 135 kPa	0.1234 W/m/K and 0.1231 W/m/K
173.51 K, 148 kPa	0.1235 W/m/K and 0.1238 W/m/K
173.66 K, 150 kPa	0.1231 W/m/K
173.75 K, 136 kPa	0.1237 W/m/K
173.75 K, 137 kPa	0.1236 W/m/K
173.75 K, 148 kPa	0.1236 W/m/K
173.91 K, 150 kPa	0.1233 W/m/K and 0.1231 W/m/K
174.01 K, 138 kPa	0.1235 W/m/K
174.01 K, 140 kPa	0.1235 W/m/K
174.01 K, 148 kPa	0.1235 W/m/K
174.01 K, 149 kPa	0.1235 W/m/K
174.21 K, 150 kPa	0.1234 W/m/K
174.29 K, 140 kPa	0.1233 W/m/K
174.29 K, 141 kPa	0.1231 W/m/K
174.3 K, 149 kPa	0.1239 W/m/K and 0.1236 W/m/K
181.78 K, 159 kPa	0.1224 W/m/K and 0.1223 W/m/K
182.06 K, 158 kPa	0.1227 W/m/K and 0.1222 W/m/K
182.37 K, 158 kPa	0.1222 W/m/K and 0.1225 W/m/K
182.5 K, 266 kPa	0.1225 W/m/K
182.5 K, 269 kPa	0.1226 W/m/K
182.51 K, 5857 kPa	0.1236 W/m/K
182.51 K, 70521 kPa	0.1336 W/m/K
182.52 K, 5874 kPa	0.1237 W/m/K
182.52 K, 12298 kPa	0.1248 W/m/K
182.52 K, 12334 kPa	0.1252 W/m/K
182.53 K, 18829 kPa	0.126 W/m/K
182.53 K, 18849 kPa	0.126 W/m/K
182.53 K, 32455 kPa	0.1283 W/m/K
182.54 K, 25387 kPa	0.1271 W/m/K
182.54 K, 25434 kPa	0.1275 W/m/K
182.54 K, 63262 kPa	0.1331 W/m/K and 0.133 W/m/K
182.55 K, 32519 kPa	0.128 W/m/K
182.6 K, 54974 kPa	0.1317 W/m/K
182.6 K, 54979 kPa	0.1314 W/m/K
182.64 K, 47632 kPa	0.1303 W/m/K
182.64 K, 47638 kPa	0.1309 W/m/K
182.68 K, 39974 kPa	0.1293 W/m/K
182.68 K, 39979 kPa	0.1294 W/m/K
182.7 K, 158 kPa	0.1222 W/m/K
182.71 K, 158 kPa	0.1222 W/m/K
182.81 K, 266 kPa	0.1225 W/m/K
182.81 K, 278 kPa	0.1224 W/m/K
182.81 K, 5870 kPa	0.1236 W/m/K
182.81 K, 5874 kPa	0.1234 W/m/K
182.81 K, 70507 kPa	0.134 W/m/K
182.81 K, 70514 kPa	0.134 W/m/K
182.82 K, 12333 kPa	0.1247 W/m/K
182.83 K, 18827 kPa	0.1259 W/m/K
182.83 K, 18835 kPa	0.1259 W/m/K
182.83 K, 25436 kPa	0.1272 W/m/K
182.84 K, 25420 kPa	0.127 W/m/K
182.84 K, 32528 kPa	0.1281 W/m/K
182.84 K, 32589 kPa	0.128 W/m/K
182.85 K, 63255 kPa	0.1331 W/m/K
182.91 K, 54970 kPa	0.1314 W/m/K
182.92 K, 54983 kPa	0.1316 W/m/K
182.95 K, 47626 kPa	0.1304 W/m/K
182.95 K, 47631 kPa	0.1305 W/m/K
182.99 K, 39966 kPa	0.129 W/m/K
182.99 K, 39976 kPa	0.1291 W/m/K
183.06 K, 158 kPa	0.1223 W/m/K and 0.1222 W/m/K
183.13 K, 269 kPa	0.1224 W/m/K
183.14 K, 277 kPa	0.1224 W/m/K
183.14 K, 5876 kPa	0.1234 W/m/K
183.14 K, 5877 kPa	0.1234 W/m/K
183.14 K, 70492 kPa	0.1338 W/m/K
183.14 K, 70493 kPa	0.134 W/m/K
183.15 K, 12341 kPa	0.1246 W/m/K
183.15 K, 18865 kPa	0.1257 W/m/K
183.15 K, 25402 kPa	0.1266 W/m/K
183.16 K, 12323 kPa	0.1246 W/m/K
183.16 K, 18832 kPa	0.1258 W/m/K
183.16 K, 25441 kPa	0.1268 W/m/K
183.16 K, 32517 kPa	0.1281 W/m/K
183.17 K, 32553 kPa	0.1282 W/m/K
183.18 K, 63248 kPa	0.1329 W/m/K
183.19 K, 63254 kPa	0.133 W/m/K
183.25 K, 54977 kPa	0.1312 W/m/K
183.25 K, 54980 kPa	0.1317 W/m/K
183.29 K, 47629 kPa	0.13 W/m/K
183.3 K, 47628 kPa	0.1305 W/m/K
183.34 K, 39964 kPa	0.1291 W/m/K
183.34 K, 39965 kPa	0.1291 W/m/K
183.5 K, 279 kPa	0.1222 W/m/K
183.5 K, 290 kPa	0.1225 W/m/K
183.5 K, 5883 kPa	0.1234 W/m/K
183.5 K, 12421 kPa	0.1245 W/m/K
183.5 K, 70475 kPa	0.1338 W/m/K
183.5 K, 70484 kPa	0.1336 W/m/K
183.51 K, 5882 kPa	0.1233 W/m/K
183.51 K, 12360 kPa	0.1246 W/m/K
183.51 K, 18836 kPa	0.1258 W/m/K
183.51 K, 18859 kPa	0.1258 W/m/K
183.51 K, 25404 kPa	0.1269 W/m/K
183.51 K, 25455 kPa	0.1269 W/m/K
183.51 K, 32519 kPa	0.1282 W/m/K
183.51 K, 32578 kPa	0.1281 W/m/K
183.54 K, 63251 kPa	0.133 W/m/K
183.55 K, 63252 kPa	0.1329 W/m/K
183.62 K, 54975 kPa	0.1314 W/m/K
183.66 K, 47626 kPa	0.1304 W/m/K
183.67 K, 47632 kPa	0.1303 W/m/K
183.71 K, 39948 kPa	0.129 W/m/K
183.71 K, 39959 kPa	0.1291 W/m/K
183.88 K, 5875 kPa	0.1233 W/m/K
183.88 K, 18828 kPa	0.1257 W/m/K
183.88 K, 18858 kPa	0.1257 W/m/K
183.88 K, 25416 kPa	0.1267 W/m/K
183.88 K, 32497 kPa	0.1281 W/m/K
183.88 K, 70464 kPa	0.1338 W/m/K
183.89 K, 5878 kPa	0.1233 W/m/K
183.89 K, 12374 kPa	0.1246 W/m/K
183.89 K, 12395 kPa	0.1244 W/m/K
183.89 K, 25431 kPa	0.1268 W/m/K
183.89 K, 32541 kPa	0.1281 W/m/K
183.89 K, 70475 kPa	0.1341 W/m/K
183.9 K, 282 kPa	0.1223 W/m/K
183.9 K, 287 kPa	0.1222 W/m/K
183.93 K, 63243 kPa	0.1325 W/m/K
183.93 K, 63247 kPa	0.1328 W/m/K
184.01 K, 54967 kPa	0.1313 W/m/K
184.01 K, 54970 kPa	0.1314 W/m/K
184.06 K, 47633 kPa	0.1303 W/m/K
184.06 K, 47634 kPa	0.13 W/m/K
184.1 K, 39951 kPa	0.129 W/m/K
184.1 K, 39957 kPa	0.129 W/m/K
201.76 K, 4752 kPa	0.1207 W/m/K
201.76 K, 4760 kPa	0.1207 W/m/K
201.78 K, 10055 kPa	0.1218 W/m/K
201.78 K, 10078 kPa	0.1219 W/m/K
201.81 K, 15810 kPa	0.1231 W/m/K
201.85 K, 253 kPa	0.1197 W/m/K
201.86 K, 245 kPa	0.1197 W/m/K
